Results reported in US20260226062A1, “COMPOSITIONS USEFUL FOR MODULATING SPLICING” (Skyhawk Therapeutics, Inc., priority 2023, published 2026).
pIC50: −log10 of the molar value.

System: ATXN3 pre-mRNA
Experiment: ATXN3 Quantitative Splicing Assay (qPCR, E4E5 primers/probe detecting transcripts containing exon 4)
Format: cell-based
Details: Human neuroblastoma SK-N-MC cells, 24 h treatment, qPCR of transcripts containing exon 4; read-out: ATXN3 Potency - Splicing: ATXN3 E4E5 IC50
Description: Human neuroblastoma SK-N-MC cells were plated in 384-well plates at 20,000 cells/well. Twenty-four hours after plating, cells were treated with compounds for 24 h at appropriate concentrations ranging from 30 μM to 0.6 nM (0.3% DMSO). Treated cells were lysed in 15 μL of lysis buffer, and cDNA was synthesized using the Fast Advanced Cells-to-Ct kit. Two μL of each cDNA was used in qPCR reactions to confirm the exon 4 skipped transcripts of ATXN3. A second set of primers/probe E4E5 was used to detect the transcripts containing exon 4. The third set of primers/probe E8E9 was used to detect total gene level of ATXN3. The qPCR reactions were prepared in 384-well plates in 10 μL volume, using TaqMan™ Fast Advanced Master Mix with primers and probes shown in the table below. Reactions were run in a Quant Studio 6 qPCR instrument with default settings.
The primers and probes are listed below in Table 3.

| Structure (SMILES) | pIC50 |
| --- | --- |
| C[C@H](F)[C@H](N)Cc1cc2c(NCc3nccs3)nc(Cl)nn2c1Br [Compound 3, 6-((2R,3S)-2-amino-3-fluorobutyl)-7-bromo-2-chloro-N-(thiazol-2-ylmethyl)pyrrolo[2,1-f][1,2,4]triazin-4-amine] | 6.30 to 7.00 |
| Cc1c(C[C@@H](N)[C@H](C)F)cc2c(NCc3nccs3)nc(Cl)nn12 [Compound 4, 6-((2R,3S)-2-amino-3-fluorobutyl)-2-chloro-7-methyl-N-(thiazol-2-ylmethyl)pyrrolo[2,1-f][1,2,4]triazin-4-amine] | 6.30 to 7.00 |
| C[C@H](F)[C@H](N)Cc1cc2c(NCc3ccsn3)nc(Cl)nn2c1Br [Compound 8, 6-((2R,3S)-2-amino-3-fluorobutyl)-7-bromo-2-chloro-N-(isothiazol-3-ylmethyl)pyrrolo[2,1-f][1,2,4]triazin-4-amine] | 7.00 to 11.00 |
| C[C@H](F)[C@H](N)Cc1cc2c(NCc3ncco3)nc(Cl)nn2c1Cl [Compound 6, 6-((2R,3S)-2-amino-3-fluorobutyl)-2,7-dichloro-N-(oxazol-2-ylmethyl)pyrrolo[2,1-f][1,2,4]triazin-4-amine] | 6.30 to 7.00 |
| Cc1c(C[C@@H](N)[C@H](C)F)cc2c(NCc3ccon3)nc(Cl)nn12 [Compound 9, 6-((2R,3S)-2-amino-3-fluorobutyl)-2-chloro-N-(isoxazol-3-ylmethyl)-7-methylpyrrolo[2,1-f][1,2,4]triazin-4-amine] | 5.30 to 6.30 |
| C[C@H](F)[C@H](N)Cc1cc2c(NCc3nccs3)nc(Cl)nn2c1Cl [Compound 5, 6-((2R,3S)-2-amino-3-fluorobutyl)-2,7-dichloro-N-(thiazol-2-ylmethyl)pyrrolo[2,1-f][1,2,4]triazin-4-amine] | 6.30 to 7.00 |
| C[C@H](F)[C@H](N)Cc1cc2c(NCc3ccon3)nc(Cl)nn2c1Br [Compound 7, 6-((2R,3S)-2-amino-3-fluorobutyl)-7-bromo-2-chloro-N-(isoxazol-3-ylmethyl)pyrrolo[2,1-f][1,2,4]triazin-4-amine] | 6.30 to 7.00 |
| Cc1c(C[C@@H](N)[C@H](C)F)cc2c(NCc3ccsn3)nc(Cl)nn12 [Compound 10, 6-((2R,3S)-2-amino-3-fluorobutyl)-2-chloro-N-(isothiazol-3-ylmethyl)-7-methylpyrrolo[2,1-f][1,2,4]triazin-4-amine] | 6.30 to 7.00 |
| Cc1c(C[C@@H](N)[C@H](C)F)cc2c(NCc3ncco3)nc(Cl)nn12 [Compound 2, 6-((2R,3S)-2-amino-3-fluorobutyl)-2-chloro-7-methyl-N-(oxazol-2-ylmethyl)pyrrolo[2,1-f][1,2,4]triazin-4-amine] | 5.30 to 6.30 |
| C[C@H](F)[C@H](N)Cc1cc2c(NCc3ncco3)nc(Cl)nn2c1Br [Compound 1, 6-((2R,3S)-2-amino-3-fluorobutyl)-7-bromo-2-chloro-N-(oxazol-2-ylmethyl)pyrrolo[2,1-f][1,2,4]triazin-4-amine] | 6.30 to 7.00 |
